# Laboratory results reported in patent publication US11952388B2, “Crystal form of tri-cycle compound and application thereof” (FUJIAN AKEYLINK BIOTECHNOLOGY CO., LTD., priority 2018, dated 2024).
# Assay: Pre-stability (solid stability) test of crystal form B, HPLC analysis
# Assay type: physicochemical
# Procedure: [table] Note: • X indicates testing items, including: XRPD, content and related substances, day 0 samples were stored at −20° C.; • ICH indicate the illumination condition that guides the placement of the samples, i.e., illumination (total illuminance=1.2×10^6 Lux·hr/near ultraviolet=200 w·hr/m^2, with the lid open). About 10 mg of the crystal form B of the compound represented by formula (I) was weighed and placed at the bottom of a 40 mL glass bottle, and spread into a thin layer. The bottleneck was wrapped with aluminum foil paper (except for illuminated samples), and some small holes were punctured on the aluminum foil paper to ensure that the samples can fully contact the ambient air. The illuminated sample was placed at the bottom of a 40 mL glass bottle, which was placed vertically in the illuminated box with the lid open; the control sample was placed at the bottom of glass vials, which was placed vertically with the lid open, and wrapped with tin foil to protect it from light. Under each condition, 2 aliquots of sample were weighed in parallel at each time point, and an additional appropriate amount of sample (not weighed) was taken for XRPD detection. The prepared samples were placed under various conditions shown in the following Table, and samples were analyzed respectively by HPLC after reaching the time points. 1.1 Preparation of Diluent and Mobile Phase • Diluent: Acetonitrile:Water (2:1) • Example: 1000 mL of acetonitrile and 500 mL of water were mixed evenly, ultrasonically degassed, and cooled to room temperature. • Mobile phase A: 0.1% trifluoroacetic acid aqueous solution • Example: 2.0 mL of trifluoroacetic acid was added to 2 L of water and mixed well, ultrasonically degassed, and cooled to room temperature. • Mobile phase B: 100% acetonitrile The crystal form B of compound represented by formula (I) was used as control. The crystal form B of compound represented by formula (I) was placed in a glass bottle, then 5 mL of diluent was added into the bottle to a concentration of 1 mg/mL, and the solution was mix well ultrasonically. And then the mixture was diluted 5 times to obtain the control sample solution STD1. STD1 was diluted 1, 2, 4, 20 and 200 times to prepare a 1% control solution. Diluent was added to each test sample to a concentration of 10 mL, then the samples were ultrasonically dissolved. HPLC test was performed after cooling to room temperature. Meanwhile, the sample solution was diluted 5 times and mixed well, and then tested by HPLC. [table]
# [1] = Illumination of Control (light-proof)
compound,measurement,setting,value
Cc1cc2n(c1)S(=O)(=O)c1ccc(C(=O)NCC[C@H]3COCCO3)cc1NC2=O,Assay (content of the sample),"40° C., 75% humidity, 1 month",100.6%
same,TRS (sum of impurities),"40° C., 75% humidity, 1 month",1.20%
same,impurity at relative retention time 0.87,"40° C., 75% humidity, 1 month",0.34%
same,impurity at relative retention time 1.07,"40° C., 75% humidity, 1 month",0.07%
same,impurity at relative retention time 1.12,"40° C., 75% humidity, 1 month",0.65%
same,impurity at relative retention time 1.14,"40° C., 75% humidity, 1 month",0.13%
same,Assay (content of the sample),"40° C., 75% humidity, 10 days",100.7%
same,TRS (sum of impurities),"40° C., 75% humidity, 10 days",1.19%
same,impurity at relative retention time 0.87,"40° C., 75% humidity, 10 days",0.34%
same,impurity at relative retention time 1.07,"40° C., 75% humidity, 10 days",0.06%
same,impurity at relative retention time 1.12,"40° C., 75% humidity, 10 days",0.65%
same,impurity at relative retention time 1.14,"40° C., 75% humidity, 10 days",0.13%
same,Assay (content of the sample),"60° C., 75% humidity, 1 month",100.3%
same,TRS (sum of impurities),"60° C., 75% humidity, 1 month",1.21%
same,impurity at relative retention time 0.87,"60° C., 75% humidity, 1 month",0.35%
same,impurity at relative retention time 1.07,"60° C., 75% humidity, 1 month",0.07%
same,impurity at relative retention time 1.12,"60° C., 75% humidity, 1 month",0.65%
same,impurity at relative retention time 1.14,"60° C., 75% humidity, 1 month",0.13%
same,Assay (content of the sample),"60° C., 75% humidity, 10 days",101.4%
same,TRS (sum of impurities),"60° C., 75% humidity, 10 days",1.20%
same,impurity at relative retention time 0.87,"60° C., 75% humidity, 10 days",0.35%
same,impurity at relative retention time 1.07,"60° C., 75% humidity, 10 days",0.07%
same,impurity at relative retention time 1.12,"60° C., 75% humidity, 10 days",0.65%
same,impurity at relative retention time 1.14,"60° C., 75% humidity, 10 days",0.13%
same,Assay (content of the sample),"60° C., 5 days",100.1%
same,TRS (sum of impurities),"60° C., 5 days",1.19%
same,impurity at relative retention time 0.87,"60° C., 5 days",0.35%
same,impurity at relative retention time 1.07,"60° C., 5 days",0.07%
same,impurity at relative retention time 1.12,"60° C., 5 days",0.65%
same,impurity at relative retention time 1.14,"60° C., 5 days",0.13%
same,Assay (content of the sample),"60° C., 10 days",100.1%
same,TRS (sum of impurities),"60° C., 10 days",1.21%
same,impurity at relative retention time 0.87,"60° C., 10 days",0.36%
same,impurity at relative retention time 1.07,"60° C., 10 days",0.07%
same,impurity at relative retention time 1.12,"60° C., 10 days",0.65%
same,impurity at relative retention time 1.14,"60° C., 10 days",0.13%
same,Assay (content of the sample),"92.5% humidity, 5 days",100.0%
same,TRS (sum of impurities),"92.5% humidity, 5 days",1.21%
same,impurity at relative retention time 0.87,"92.5% humidity, 5 days",0.36%
same,impurity at relative retention time 1.07,"92.5% humidity, 5 days",0.07%
same,impurity at relative retention time 1.12,"92.5% humidity, 5 days",0.65%
same,impurity at relative retention time 1.14,"92.5% humidity, 5 days",0.13%
same,Assay (content of the sample),"92.5% humidity, 10 days",100.7%
same,TRS (sum of impurities),"92.5% humidity, 10 days",1.20%
same,impurity at relative retention time 0.87,"92.5% humidity, 10 days",0.35%
same,impurity at relative retention time 1.07,"92.5% humidity, 10 days",0.06%
same,impurity at relative retention time 1.12,"92.5% humidity, 10 days",0.65%
same,impurity at relative retention time 1.14,"92.5% humidity, 10 days",0.13%
same,Assay (content of the sample),Day 0,100.5%
same,TRS (sum of impurities),Day 0,1.20%
same,impurity at relative retention time 0.87,Day 0,0.35%
same,impurity at relative retention time 1.07,Day 0,0.06%
same,impurity at relative retention time 1.12,Day 0,0.65%
same,impurity at relative retention time 1.14,Day 0,0.14%
same,Assay (content of the sample),"Illumination (1 ICH, lid open)",83.5%
same,TRS (sum of impurities),"Illumination (1 ICH, lid open)",9.50%
same,impurity at relative retention time 0.16,"Illumination (1 ICH, lid open)",0.07%
same,impurity at relative retention time 0.19,"Illumination (1 ICH, lid open)",0.32%
same,impurity at relative retention time 0.24,"Illumination (1 ICH, lid open)",0.12%
same,impurity at relative retention time 0.26,"Illumination (1 ICH, lid open)",0.12%
same,impurity at relative retention time 0.31,"Illumination (1 ICH, lid open)",0.12%
same,impurity at relative retention time 0.36,"Illumination (1 ICH, lid open)",0.19%
same,impurity at relative retention time 0.38,"Illumination (1 ICH, lid open)",0.08%
same,impurity at relative retention time 0.60,"Illumination (1 ICH, lid open)",0.28%
same,impurity at relative retention time 0.62,"Illumination (1 ICH, lid open)",0.12%
same,impurity at relative retention time 0.70,"Illumination (1 ICH, lid open)",0.10%
same,impurity at relative retention time 0.78,"Illumination (1 ICH, lid open)",0.16%
same,impurity at relative retention time 0.79,"Illumination (1 ICH, lid open)",0.24%
same,impurity at relative retention time 0.82,"Illumination (1 ICH, lid open)",2.26%
same,impurity at relative retention time 0.87,"Illumination (1 ICH, lid open)",4.49%
same,impurity at relative retention time 0.89,"Illumination (1 ICH, lid open)",0.07%
same,impurity at relative retention time 0.90,"Illumination (1 ICH, lid open)",0.07%
same,impurity at relative retention time 1.07,"Illumination (1 ICH, lid open)",<0.05%
same,impurity at relative retention time 1.12,"Illumination (1 ICH, lid open)",0.52%
same,impurity at relative retention time 1.14,"Illumination (1 ICH, lid open)",0.12%
same,impurity at relative retention time 1.42,"Illumination (1 ICH, lid open)",0.06%
same,Assay (content of the sample),[1],100.3%
same,TRS (sum of impurities),[1],1.18%
same,impurity at relative retention time 0.87,[1],0.34%
same,impurity at relative retention time 1.07,[1],0.07%
same,impurity at relative retention time 1.12,[1],0.64%
same,impurity at relative retention time 1.14,[1],0.13%
same,solid stability (conclusion in words),high temperature and high humidity conditions,stable under high temperature and high humidity conditions
